Reference: US11564911B2, “Small molecule dual-inhibitors of TRPV4 and TRPA1 for sanitizing and anesthetizing” (Duke University, priority 2016, dated 2023)
“Also recorded” adds a separate entry of the source.

Columns and labels:
TRPV4 [1] = target: T1, TRPV4 (Mus musculus, UniProt Q9EPK8); assay: Ca++ transients in primary mouse keratinocytes on chemical activation of TRPV4 (GSK101, 4α-PDD); format: cell-based; conditions: 1° MK, 5 nM GSK101; GSK205 20 μM
T1 construct: endogenous in cells; host or cells: primary mouse epidermal keratinocytes (1° MK)
Protocol: Ca++ imaging of mouse 1° MK in response to chemical activation of TRPV4 was conducted after loading with 2 μM fura2-AM, following a ratiometric Ca2+ imaging protocol with 340/380 nm […] for dual excitation. Ratios of emissions were acquired at 0.5 Hz. ΔR/R0 was determined as the fraction of the increase of a given ratio over baseline ratio, divided by baseline ratio. For stimulation of cells with UVB, where fura-2 was not suitable because of the proximity of stimulation with 340/380 nm and 295 nm, 2 μM fluo4-AM was used instead. Ca++ imaging was carried out at 488 nm excitation, acquisition of emissions at 0.5 Hz, expressed as ΔF/F0. In the custom-built UV optical system, UV LEDs were capped with a ball lens, a transparent optical window in the shape of a hemispherical lens (FIG. 2B). The LED output optical beam focused at 15-20 mm from the lens, with a spot diameter of approximately 1.5-2.0 mm (FIG. 2C). […] The thermal equilibration stage was set for physiological temperature. We confirmed the non-thermal nature of UVB stimulation using the customized 295 nm LED device in a dedicated experiment (FIG. 2D), thus confirming the specific modality of stimulation as UVB.

[2] = tested on: primary mouse keratinocytes (1° MK); assay: IL-1β secreted by cultured keratinocytes after UVB exposure (ELISA); format: cell-based; conditions: 5 μM GSK205
Protocol: Before UV irradiation, culture media was replaced with PBS. The cells were then irradiated at a dose of 50 mJ/cm^2 with UVB. 24 hours later, supernatants were assayed using IL-1β ELISA (R&D Systems, Minneapolis, Minn.).

[3] = tested on: trigeminal formalin-evoked pain behavior; conditions: dose-dependent, intradermal injection; cited from earlier work
[4] = tested on: mice, UVB-exposed hind paws; assay: UVB-evoked nocifensive behavior after topical GSK205 (Hargreaves, von Frey); format: in vivo, mouse
Protocol: Behavioral tests were performed to evaluate the decrease in withdrawal thresholds in response to mechanical von Frey hair or thermal stimuli applied to hind paws. […]. These withdrawal thresholds were ascertained before and after UV exposure. Mice were exposed using a Bio Rad Gel Doc 2000 UV transilluminator (302 nm) for 5 minutes with an exposure of 600 mJ/cm^2, 3-5 days after the last application of tamoxifen/oil.
GSK205 topical treatment: A viscous solution of 68% EtOH/5% glycerol plus 1 mM or 5 mM GSK205 (none for control) was applied to hindpaws by rubbing in 20 μL, applied at time-points 1 hour and again 10 min before UV exposure.
Behavioral tests were performed to evaluate the decrease in withdrawal thresholds in response to mechanical or thermal stimuli applied to hind paws. These withdrawal thresholds were ascertained before and after UVB exposure. Mice were confined by plexi-glass enclosures on top of 25×26 cm Bio Rad Gel Doc 2000 UV transilluminator (302 nm), and otherwise allowed to openly explore this environment. UV-exposure lasted for 5 minutes with an exposure of 600 mJ/cm^2.
Hindpaw mechanical withdrawal thresholds were determined by the automated von Frey hair method, using a 0.5 mm diameter stainless steel filament, part of an automated plantar touch stimulator (Ugo Basile, Modena, Italy). Relevant detail included pre-test acclimatization in a quiet room for 30 min, conducting the test at the same time of day and blinded observers. The stimulus was delivered to the hindpaw, automatically discontinued upon withdrawal, and its intensity recorded automatically. 6-8 trials per animal were conducted, with equal exposure of both hindpaws, leading to an average withdrawal threshold. Results are reported as […], which was calculated by subtracting post-treatment from pre-treatment measurements, expressed as % or relative to 1.0.
Hindpaw thermal (hot) withdrawal thresholds were determined by the well-established Hargreaves' method, using an infra-red thermal stimulation device that delivers the stimulus from underneath the hindpaw combined with automatic shut-off upon withdrawal (Ugo Basile). Stimulation and measurements were conducted as described for von Frey hair testing. A cutoff of 20 sec was set to prevent tissue damage.

[5] = tested on: C57BL/6J mice, caerulein-evoked acute pancreatitis; assay: Caerulein-evoked acute pancreatitis mouse model; format: in vivo; conditions: 10 mg/kg i.p., 30 min before caerulein
Protocol: C57BL/6J male mice 8-10 weeks of age were subjected to acute pan-creatitis by intraperitoneal injections of supramaximal doses of caerulein (50 μg/kg) every hour for a total of 6 h, as previously described in^61. Control animals received 25% DMSO-saline solution by intraperitoneal injection every hour for 6 h. Compound 16-8 was dissolved in this vehicle (10 mg/kg) and injected i.p. 30 min prior to the first injection of caerulein. Animals were sacrificed 1 h after the last injection. Blood was collected and pancreatic tissue was promptly isolated, weighed for determination of pancreas wet weight/body weight ratio. Samples of tis-sues were fixed overnight in 10% neutral-buffered formalin, paraffin embedded and H&E-stained, or pancreatic tissue was quickly frozen and assessed for myeloperoxidase (MPO) activity. Serum amylase, MPO and histologic evaluation were conducted as described previously^61.
Assessment of nocifensive behavior^8: Mice were housed in individual cages and video-recorded during the entire experiment. Two mice at a time were observed. Linear movement was measured as one event when mice passed through the median plane of the cage. Analysis began immediately after the first caerulein/vehicle injec-tion and continued until the end of the experiment. Results were expressed as the sum of the movement events spanning the 6 h time-period following the first injection.

TRPV4 [6] = target: TRPV4 (Rattus norvegicus, UniProt Q9ERZ8); assay: Ca++ imaging in primary astrocytes, GSK101 stimulation; format: cell-based; conditions: 5 nM GSK101
Protocol: FIGS. 28A-28B: Compound 16-8 inhibits TRPV4 in I° cells more potently than GSK205. […] Inset: Chondrocytes responding to activation with GSK101, fura-2 Ca++ imaging; right-hand image taken at 5 sec after GSK101 application. […] (FIG. 28B) 1° (primary) astrocytes (rat); dose-response comparison between 16-8 and GSK205 in response to 5 nM GSK101. Inset: Astrocytes responding to activation with GSK101; right-hand image taken at 5 sec after GSK101 application (mean±SEM, n=5 independent expts, 200 cells/expt; *p<0.05, t-test).
Astrocyte cultures were conducted following established protocols^64-66. Astrocytes were prepared from Sprague Dawley rat embryos (E18). Briefly, the isolated cortices were minced, and then incubated with trypsin and DNase. Dissociated cells were suspended in Dulbeccco's Modified Eagle's Medium (DMEM) supplemented with 10% fetal calf serum and penicillin/streptomycin (100 U/ml and 100 μg/ml, respectively). Thereafter, cell sus-pensions were plated in 75 cm^2 tissue culture flasks (10×10^6 cells/flask) which were pre-coated with poly-L-lysine (10 μg/ml). The cells were maintained in a […] incubator at 37° C.

[7] = Stability of compound in plasma; conditions: 4 h incubation in plasma at 37° C.
Description: Results are expressed as means±SEM, n=6 mice/experimental group for all experiments.

Sequence of TRPV4 (Rattus norvegicus, UniProt Q9ERZ8) (Q9ERZ8 whole entry): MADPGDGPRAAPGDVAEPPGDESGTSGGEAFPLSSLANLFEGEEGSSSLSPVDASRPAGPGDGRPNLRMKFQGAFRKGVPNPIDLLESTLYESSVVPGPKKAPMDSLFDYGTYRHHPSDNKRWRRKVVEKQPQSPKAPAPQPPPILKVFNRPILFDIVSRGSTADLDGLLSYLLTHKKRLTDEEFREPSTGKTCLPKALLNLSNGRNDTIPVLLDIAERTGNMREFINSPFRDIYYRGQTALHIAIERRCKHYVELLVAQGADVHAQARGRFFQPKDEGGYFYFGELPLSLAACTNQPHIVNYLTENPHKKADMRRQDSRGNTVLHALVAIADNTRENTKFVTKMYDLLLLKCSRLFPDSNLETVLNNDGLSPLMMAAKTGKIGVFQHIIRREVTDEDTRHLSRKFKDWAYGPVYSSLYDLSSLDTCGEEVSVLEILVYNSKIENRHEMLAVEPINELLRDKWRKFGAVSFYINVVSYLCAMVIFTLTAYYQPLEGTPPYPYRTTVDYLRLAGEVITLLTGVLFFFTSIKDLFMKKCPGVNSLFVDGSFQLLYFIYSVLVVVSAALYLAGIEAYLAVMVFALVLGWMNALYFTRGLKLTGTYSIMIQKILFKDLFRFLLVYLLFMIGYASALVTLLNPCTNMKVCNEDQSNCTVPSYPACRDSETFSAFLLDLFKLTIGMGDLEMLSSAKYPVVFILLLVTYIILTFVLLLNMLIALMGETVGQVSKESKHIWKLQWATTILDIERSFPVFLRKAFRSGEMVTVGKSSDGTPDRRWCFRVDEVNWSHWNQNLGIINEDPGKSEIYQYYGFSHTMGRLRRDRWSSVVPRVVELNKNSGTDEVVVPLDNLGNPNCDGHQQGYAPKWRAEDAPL
T1 sequence (Q9EPK8 whole entry): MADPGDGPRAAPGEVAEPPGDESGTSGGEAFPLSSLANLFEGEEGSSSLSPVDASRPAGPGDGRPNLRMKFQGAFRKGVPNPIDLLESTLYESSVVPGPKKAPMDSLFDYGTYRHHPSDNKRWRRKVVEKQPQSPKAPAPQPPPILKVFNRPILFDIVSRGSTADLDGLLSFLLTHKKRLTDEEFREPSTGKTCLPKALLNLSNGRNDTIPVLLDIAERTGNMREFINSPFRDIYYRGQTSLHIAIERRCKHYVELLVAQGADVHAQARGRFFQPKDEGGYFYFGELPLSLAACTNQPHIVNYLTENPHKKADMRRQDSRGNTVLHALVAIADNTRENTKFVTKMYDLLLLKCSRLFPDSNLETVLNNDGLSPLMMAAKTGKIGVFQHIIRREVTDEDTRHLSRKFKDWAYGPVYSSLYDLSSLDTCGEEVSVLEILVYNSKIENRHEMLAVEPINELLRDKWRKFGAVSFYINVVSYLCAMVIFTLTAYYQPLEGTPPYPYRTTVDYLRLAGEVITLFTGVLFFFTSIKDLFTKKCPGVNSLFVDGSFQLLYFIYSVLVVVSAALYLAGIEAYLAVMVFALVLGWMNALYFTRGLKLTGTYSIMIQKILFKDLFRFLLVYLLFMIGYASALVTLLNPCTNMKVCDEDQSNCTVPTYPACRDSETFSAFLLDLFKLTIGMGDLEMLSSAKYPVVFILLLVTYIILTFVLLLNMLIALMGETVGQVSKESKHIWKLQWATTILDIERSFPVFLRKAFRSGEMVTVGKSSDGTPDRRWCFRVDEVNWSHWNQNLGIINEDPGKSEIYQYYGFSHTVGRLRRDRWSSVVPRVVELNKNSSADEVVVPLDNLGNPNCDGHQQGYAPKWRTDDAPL

## CN(CCc1ccc(Nc2nc(-c3cccnc3)cs2)cc1)Cc1ccccc1 [GSK205]
TRPV4 [1]
  GSK101-evoked Ca++ transient: completely blocked
[2]
  UVB-induced increase in IL-1β secretion by 1° MK: completely eliminated
[3]
  trigeminal formalin-evoked pain behavior, earlier study: effective attenuation
[4]; topical 1 mM GSK205, WT mice
  delay in thermal hypersensitivity after UVB: ~24 h
[4]; topical 5 mM GSK205, Trpv4−/− mice vs vehicle
  off-target effects on withdrawal behavior: did not elicit off-target effects
[4]; topical 5 mM GSK205, WT mice
  sensitivity to von Frey hair mechanical stimulation after UVB: significantly reduced sensitivity
  thermally-evoked nocifensive behavior after UVB: sustained attenuation

## CN(CCc1ccc(Nc2nc(-c3ccccc3)cs2)cc1)Cc1ccccc1 [Compound 16-8]
[5]
  histopathological score for pancreas inflammation: significantly reduced
  myelo-peroxidase content of the pancreas: significantly reduced
  pain behavior (movement events over 6 h): virtually eliminated
  pancreatic edema: virtually eliminated
  serum amylase: significantly reduced; also recorded: reduced, but not significantly
TRPV4 [6]
  potency versus GSK205, dose-response of peak ΔCa++: significantly increased potency

## CCN(CCc1ccc(Nc2nc(-c3ccccc3)cs2)cc1)Cc1ccccc1 [Compound 16-19]
[7]
  stability in plasma: no loss of detectable compound
